# In ChEMBL document CHEMBL1126530, “A concise enantioselective synthesis of rans-olefin dipeptide isosteres” (Bioorg Med Chem Lett, 1993):
# Target: Human immunodeficiency virus type 1 protease (Human immunodeficiency virus 1, UniProt Q72874)
# Assay: Inhibitory constant against HIV-1 protease
row,Compound,Ki [µM]
1,COC(=O)[C@@H](NC(=O)[C@@H](/C=C/[C@@H](C(=O)N[C@H](C(=O)OC)C(C)C)C(C)C)Cc1ccccc1)C(C)C,5
2,COC(=O)[C@@H](NC(=O)[C@@H](/C=C/[C@H](C)C(=O)N[C@H](C(=O)OC)C(C)C)C(C)C)C(C)C,> 67
3,COC(=O)[C@@H](NC(=O)[C@@H](C)/C=C/[C@@H](Cc1ccccc1)C(=O)N[C@H](C(=O)OC)C(C)C)C(C)C,> 67
